Test results taken from ChEMBL document CHEMBL4411308, “Design, synthesis and biological evaluation of novel benzo- and tetrahydrobenzo-[h]quinoline derivatives as potential DNA-intercalating antitumor agents” (Eur J Med Chem, 2019).

Experiments:
A2780 = experiment: Cytotoxicity against human A2780 cells assessed as inhibition of cell proliferation after 48 hrs by MTT assay; format: functional, cell-based; conditions: A2780, 48 h
[1] = Cytotoxicity against mouse C26 cells assessed as inhibition of cell proliferation after 48 hrs by MTT assay; format: functional, cell-based; conditions: C26, 48 h
A549 [2] = experiment: Cytotoxicity against human A549 cells assessed as inhibition of cell proliferation after 48 hrs by MTT assay; format: functional, cell-based; conditions: A549, 48 h
MCF7 = experiment: Cytotoxicity against human MCF7 cells assessed as inhibition of cell proliferation after 48 hrs by MTT assay; format: functional, cell-based; conditions: MCF7, 48 h
A549 [3] = experiment: Induction of apoptosis in human A549 cells assessed as late apoptotic cells at 1 uM after 24 hrs by Annexin V-FITC/propidium iodide staining based flow cytometry (reference value: 0.462%); format: functional
A549 [4] = experiment: Induction of apoptosis in human A549 cells assessed as live cells at 1 uM after 24 hrs by Annexin V-FITC/propidium iodide staining based flow cytometry (reference value: 98.4%); format: functional
A549 [5] = experiment: Induction of apoptosis in human A549 cells assessed as necrotic cells at 1 uM after 24 hrs by Annexin V-FITC/propidium iodide staining based flow cytometry (reference value: 0.231%); format: functional
A549 [6] = experiment: Induction of apoptosis in human A549 cells assessed as early apoptotic cells at 1 uM after 24 hrs by Annexin V-FITC/propidium iodide staining based flow cytometry (reference value: 0.886%); format: functional
A549 [7] = experiment: Induction of apoptosis in human A549 cells assessed as early apoptotic cells at 5 uM after 24 hrs by Annexin V-FITC/propidium iodide staining based flow cytometry (reference value: 0.886%); format: functional
A549 [8] = experiment: Induction of apoptosis in human A549 cells assessed as live cells at 10 uM after 24 hrs by Annexin V-FITC/propidium iodide staining based flow cytometry (reference value: 98.4%); format: functional
Calf thymus DNA [9] = experiment: Binding affinity to calf thymus DNA by fluorescence spectroscopic method; format: nucleic-acid assay; conditions: Bos taurus
A549 [10] = experiment: Induction of apoptosis in human A549 cells assessed as late apoptotic cells at 5 uM after 24 hrs by Annexin V-FITC/propidium iodide staining based flow cytometry (reference value: 0.462%); format: functional
A549 [11] = experiment: Induction of apoptosis in human A549 cells after 24 hrs by Annexin V-FITC/propidium iodide staining based flow cytometry; format: functional, cell-based
A549 [12] = experiment: Induction of apoptosis in human A549 cells assessed as necrotic cells at 10 uM after 24 hrs by Annexin V-FITC/propidium iodide staining based flow cytometry (reference value: 0.231%); format: functional
A549 [13] = experiment: Induction of apoptosis in human A549 cells assessed as late apoptotic cells at 10 uM after 24 hrs by Annexin V-FITC/propidium iodide staining based flow cytometry (reference value: 0.462%); format: functional
A549 [14] = experiment: Induction of apoptosis in human A549 cells assessed as live cells at 5 uM after 24 hrs by Annexin V-FITC/propidium iodide staining based flow cytometry (reference value: 98.4%); format: functional
Calf thymus DNA [15] = experiment: Binding affinity to calf thymus DNA by UV-vis absorption spectrophotometric method; format: nucleic-acid assay; conditions: Bos taurus
A549 [16] = experiment: Induction of apoptosis in human A549 cells assessed as necrotic cells at 5 uM after 24 hrs by Annexin V-FITC/propidium iodide staining based flow cytometry (reference value: 0.231%); format: functional
A549 [17] = experiment: Induction of apoptosis in human A549 cells assessed as early apoptotic cells at 10 uM after 24 hrs by Annexin V-FITC/propidium iodide staining based flow cytometry (reference value: 0.886%); format: functional

CN(C)CCNC(=O)c1cc(-c2ccccc2)nc2c1ccc1ccccc12 gave an IC50 (A2780) of 72.6 µM, an IC50 [1] of 35.6 µM and an IC50 (A549 [2]) of 65.7 µM. It also gave an IC50 (MCF7) of 33.3 µM.
For COc1cccc2c1C(=O)c1c(O)c3c(c(O)c1C2=O)C[C@@](O)(C(=O)CO)C[C@@H]3O[C@H]1C[C@H](N)[C@H](O)[C@H](C)O1 [DOXORUBICIN], the Activity (A549 [3]) was 11.1%, the IC50 (A2780) was 0.123 µM and the Activity (A549 [4]) was 31%. It also gave an IC50 (A549 [2]) of 0.766 µM, an Activity (A549 [5]) of 55.8% and an Activity (A549 [6]) of 2.19%. It also gave an IC50 (MCF7) of 0.5 µM.
Work on Cc1ccc(-c2cc(C(=O)NCCN(C)C)c3ccc4c(c3n2)CCCC4)cc1 yielded an Activity (A549 [7]) of 1.13%, an IC50 (A2780) of 2.13 µM and an Activity (A549 [8]) of 54.9%. It also gave a Kb (Calf thymus DNA [9]) of 6.4 ×10⁴ No_unit, an Activity (A549 [10]) of 0.093% and an IC50 [1] of 2.33 µM. The Activity (A549 [11]) was “Dose-dependent effect”, the Activity (A549 [12]) was 0.01% and the Activity (A549 [13]) was 0.72%. It also gave an IC50 (A549 [2]) of 3.89 µM, an Activity (A549 [14]) of 97.8% and a Kb (Calf thymus DNA [15]) of 1.75 ×10⁴ No_unit. For the same molecule, the Activity (A549 [16]) was 1.02%, the IC50 (MCF7) was 2.29 µM and the Activity (A549 [17]) was 44.4%.
CN(C)CCNC(=O)c1cc(-c2ccccn2)nc2c3c(ccc12)CCCC3 gave an IC50 (A2780) of 14.8 µM, an IC50 [1] of 50 µM and an IC50 (A549 [2]) of 60.1 µM. For the same molecule, the IC50 (MCF7) was 16.6 µM.
Work on Cc1ccc(-c2cc(C(=O)NCCN(C)C)c3ccc4ccccc4c3n2)cc1 yielded an Activity (A549 [7]) of 5.48%, an IC50 (A2780) of 9.08 µM and an Activity (A549 [8]) of 75.1%. The Kb (Calf thymus DNA [9]) was 8.1 ×10⁴ No_unit, the Activity (A549 [10]) was 0.18% and the IC50 [1] was 3.62 µM. For the same molecule, the Activity (A549 [11]) was “Dose-dependent effect”, the Activity (A549 [12]) was 0.22% and the Activity (A549 [13]) was 0.08%. The IC50 (A549 [2]) was 5.89 µM, the Activity (A549 [14]) was 94.1% and the Kb (Calf thymus DNA [15]) was 2.2 ×10⁴ No_unit. The Activity (A549 [16]) was 0.2%, the IC50 (MCF7) was 1.51 µM and the Activity (A549 [17]) was 24.6%.
With COc1cc(-c2cc(C(=O)NCCN(C)C)c3ccc4c(c3n2)CCCC4)cc(OC)c1OC the IC50 (A2780) was 11 µM, the IC50 [1] was 11.6 µM and the IC50 (A549 [2]) was 14.5 µM. For the same molecule, the IC50 (MCF7) was 5.62 µM.
In the case of CC(=O)Nc1ccc(-c2cc(C(=O)NCCN(C)C)c3ccc4c(c3n2)CCCC4)cc1, the Activity (A549 [7]) is reported as 27.5%, the IC50 (A2780) is reported as 1.86 µM and the Activity (A549 [8]) is reported as 53%. The Activity (A549 [10]) was 7.58%, the IC50 [1] was 3.91 µM and the Activity (A549 [11]) was “Dose-dependent effect”. For the same molecule, the Activity (A549 [12]) was 0.34%, the Activity (A549 [13]) was 0.34% and the IC50 (A549 [2]) was 1.9 µM. It also gave an Activity (A549 [14]) of 63.7%, a Kb (Calf thymus DNA [15]) of 2 ×10⁴ No_unit and an Activity (A549 [16]) of 1.22%. It also gave an IC50 (MCF7) of 2.69 µM and an Activity (A549 [17]) of 46.4%.
CN(C)CCNC(=O)c1cc(-c2ccc(F)cc2)nc2c1ccc1ccccc12 gave an IC50 (A2780) of 14.3 µM, an IC50 [1] of 5.29 µM and an IC50 (A549 [2]) of 18.4 µM. For the same molecule, the IC50 (MCF7) was 16.6 µM.
Work on CC(=O)Nc1ccc(-c2cc(C(=O)NCCN(C)C)c3ccc4ccccc4c3n2)cc1 yielded an IC50 (A2780) of 9.34 µM, an IC50 [1] of 7.71 µM and an IC50 (A549 [2]) of 7.98 µM. The IC50 (MCF7) was 4.05 µM.
With COc1ccc(-c2cc(C(=O)NCCN(C)C)c3ccc4ccccc4c3n2)cc1 the IC50 (A2780) was 14.2 µM, the Kb (Calf thymus DNA [9]) was 7.4 ×10⁴ No_unit and the IC50 [1] was 2.41 µM. The IC50 (A549 [2]) was 20.2 µM, the Kb (Calf thymus DNA [15]) was 2 ×10⁴ No_unit and the IC50 (MCF7) was 37.4 µM.
Work on CN(C)CCNC(=O)c1cc(-c2ccc(F)cc2)nc2c3c(ccc12)CCCC3 yielded an IC50 (A2780) of 6.16 µM, an IC50 [1] of 18.4 µM and an IC50 (A549 [2]) of 13.6 µM. It also gave an IC50 (MCF7) of 12.9 µM.
With COc1ccc(-c2cc(C(=O)NCCN(C)C)c3ccc4c(c3n2)CCCC4)cc1OC the IC50 (A2780) was 11.5 µM, the IC50 [1] was 12.7 µM and the IC50 (A549 [2]) was 15.4 µM. For the same molecule, the IC50 (MCF7) was 13.8 µM.
With COc1ccc(-c2cc(C(=O)NCCN(C)C)c3ccc4c(c3n2)CCCC4)cc1 the IC50 (A2780) was 1.65 µM, the IC50 [1] was 7.19 µM and the IC50 (A549 [2]) was 4.96 µM. For the same molecule, the IC50 (MCF7) was 6.3 µM.
CN(C)CCNC(=O)c1cc(-c2ccccn2)nc2c1ccc1ccccc12 showed an IC50 (A2780) of 61.2 µM, an IC50 [1] of 39.3 µM and an IC50 (A549 [2]) of 56.2 µM. The IC50 (MCF7) was > 100 µM.
